The values that follow come from EP1824830B1, “RADIOLABELLED QUINOLINE-BASED LIGANDS FOR THE 5-HT6 RECEPTOR FUNCTIONALITY” (GLAXO GROUP LIMITED, priority 2004, dated 2006).

The target in data set [1] is T1, human recombinant 5-HT6 receptor (Homo sapiens, UniProt P50406).
T1 construct: expressed in transfected cells; host or cells: HeLa
In words: Radioligand binding, competition studies with [^3H]LSD. The source says: (§1) Table 1. Binding Profile (pKi values) of GSK215083

A further data set has as its target T2, 5-HT1A (Homo sapiens, UniProt P08908).
T2 sequence (P08908 1-422): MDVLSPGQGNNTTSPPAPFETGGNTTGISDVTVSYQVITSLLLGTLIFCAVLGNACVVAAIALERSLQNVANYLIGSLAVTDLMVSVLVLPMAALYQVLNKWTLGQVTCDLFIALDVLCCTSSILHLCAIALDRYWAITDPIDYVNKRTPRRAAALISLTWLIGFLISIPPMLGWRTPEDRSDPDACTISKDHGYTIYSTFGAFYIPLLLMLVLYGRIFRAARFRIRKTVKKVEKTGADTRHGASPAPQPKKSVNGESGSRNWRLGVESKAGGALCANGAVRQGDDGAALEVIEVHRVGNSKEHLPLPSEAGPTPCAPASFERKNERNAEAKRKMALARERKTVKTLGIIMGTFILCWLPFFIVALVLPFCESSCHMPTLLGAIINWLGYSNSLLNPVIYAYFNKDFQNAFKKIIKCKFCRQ
In words: Binding profile.
Text: as §1

For the next data set, the target named is 5-HT1B (Homo sapiens, UniProt P28222). In words: Binding profile.
Text: as §1

The target in another data set is 5-HT1D (Homo sapiens, UniProt P28221). In words: Binding profile.
Text: as §1

The target of a further data set is 5-HT2B (Homo sapiens, UniProt P41595). In words: Binding profile.
Text: as §1

A further data set concerns the target T3, 5-HT2C (Homo sapiens, UniProt P28335).
T3 sequence (P28335 33-458): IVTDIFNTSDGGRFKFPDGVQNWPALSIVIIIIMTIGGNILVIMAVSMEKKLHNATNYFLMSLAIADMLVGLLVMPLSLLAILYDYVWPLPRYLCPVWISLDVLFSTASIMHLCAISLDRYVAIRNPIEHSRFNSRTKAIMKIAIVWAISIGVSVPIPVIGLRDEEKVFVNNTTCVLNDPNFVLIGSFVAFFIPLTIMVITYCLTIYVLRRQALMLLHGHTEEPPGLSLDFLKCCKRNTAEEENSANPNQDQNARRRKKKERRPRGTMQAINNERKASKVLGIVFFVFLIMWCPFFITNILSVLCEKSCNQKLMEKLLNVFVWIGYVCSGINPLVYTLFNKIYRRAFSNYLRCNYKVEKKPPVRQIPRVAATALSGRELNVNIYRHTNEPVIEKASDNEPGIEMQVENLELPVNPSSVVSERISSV
In words: Binding profile.
Text: as §1

For the next data set, the target named is 5-HT7 (Homo sapiens, UniProt P34969). In words: Binding profile.
Text: as §1

A further data set addresses Dopamine D2 (Homo sapiens, UniProt P14416). In words: Binding profile.
Text: as §1

Another data set concerns the target Dopamine D3 (Homo sapiens, UniProt P35462). In words: Binding profile.
Text: as §1

The target of another data set is T4, α1B adrenoreceptor (Homo sapiens, UniProt P35368).
T4 sequence (P35368 1-520): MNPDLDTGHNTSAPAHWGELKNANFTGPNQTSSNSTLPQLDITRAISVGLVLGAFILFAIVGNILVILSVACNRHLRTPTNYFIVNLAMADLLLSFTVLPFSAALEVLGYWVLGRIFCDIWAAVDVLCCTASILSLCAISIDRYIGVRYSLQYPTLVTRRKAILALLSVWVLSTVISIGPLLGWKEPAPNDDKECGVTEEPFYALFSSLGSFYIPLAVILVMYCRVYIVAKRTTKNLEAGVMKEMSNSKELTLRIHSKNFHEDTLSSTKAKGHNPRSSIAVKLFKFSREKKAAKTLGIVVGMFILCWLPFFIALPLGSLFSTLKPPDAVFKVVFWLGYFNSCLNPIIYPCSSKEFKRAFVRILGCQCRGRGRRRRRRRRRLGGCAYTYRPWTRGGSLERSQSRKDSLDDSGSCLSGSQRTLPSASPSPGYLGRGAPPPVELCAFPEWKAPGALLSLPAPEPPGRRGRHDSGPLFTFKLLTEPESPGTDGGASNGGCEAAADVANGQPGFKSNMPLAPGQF
In words: Binding profile.
Text: as §1

For another data set, the target named is 5-HT2A (Homo sapiens, UniProt P28223). In words: Binding profile.
Data set [2] deals with 5-HT6 receptors. In words: PET imaging, saturation of 5-HT6 receptors in the brain.
Procedure: Yorkshire/Danish Landrace porcines (- 40 Kg; n=4) were housed singly in thermostatically controlled (20 °C) and naturally illuminated stalls. The pigs were provided with Soavl® chow (DLG, Denmark) and water ad libitum by trough. Animals were fasted for 24 hours prior to PET examination, with free access to water during this interval. Animals were anaesthetised by induction with ketamine and midazolam (both intramuscular and intravenous (i.v.)) and maintained in deep anaesthesia using isoflurane (1 - 2 %; Abbott, Denmark). The left femoral artery and vein of each animal were surgically cannulated using catheters (Avanti® size 4F-7F). The femoral artery for blood sampling and blood pressure (BP) recordings and the femoral vein for administration of radiolabelled and non-labelled agents. Animals were placed supine in a Siemens ECAT EXACT HR tomograph, with the head immobilised in a custom-made holding device. During the study, blood pH, pCO2 and pO2 levels were monitored and maintained within the normal physiological range. In addition, BP and heart rate were recorded throughout the study. At the end of each study day, the animal was terminated via an intravenous dose of sodium pentobarbital (20 ml). [^11C]GSK215083 was administered intravenously in the femoral vein as a 1 minute bolus injection. PET scanning and arterial blood sampling was commenced upon start of the radioligand administration.
Four sequential high specific activity iv radioligand ([^11C]GSK215083) administrations were performed in same animal, same day. Following a baseline scan, [^11C] GSK215083 was coadministered with escalating dose of unlabelled GSK215083 (0.005, 0.05 and 0.5mg/kg). [^15O]CO and [^15O]H2O were administered pre and post administration of GSK215083 to monitor and to correct for changes in cerebral blood volume and changes in cerebral blood flow.
The subject of data set [3] is 5-HT6 receptors. The settings on record: PET.
Procedure: Yorkshire/Danish Landrace porcines (- 40 Kg; n=4) were housed singly in thermostatically controlled (20 °C) and naturally illuminated stalls. The pigs were provided with Soavl® chow (DLG, Denmark) and water ad libitum by trough. Animals were fasted for 24 hours prior to PET examination, with free access to water during this interval. Animals were anaesthetised by induction with ketamine and midazolam (both intramuscular and intravenous (i.v.)) and maintained in deep anaesthesia using isoflurane (1 - 2 %; Abbott, Denmark). The left femoral artery and vein of each animal were surgically cannulated using catheters (Avanti® size 4F-7F). The femoral artery for blood sampling and blood pressure (BP) recordings and the femoral vein for administration of radiolabelled and non-labelled agents. Animals were placed supine in a Siemens ECAT EXACT HR tomograph, with the head immobilised in a custom-made holding device. During the study, blood pH, pCO2 and pO2 levels were monitored and maintained within the normal physiological range. In addition, BP and heart rate were recorded throughout the study. At the end of each study day, the animal was terminated via an intravenous dose of sodium pentobarbital (20 ml). […] PET scanning and arterial blood sampling was commenced upon start of the radioligand administration.
[4] abbreviates: 60min post administration of 0.5mg/kg GSK215083 with [^11C]GSK215083.
Setting [5] is: 60 min post coinjection of [^11C]GSK215083 with 0.005mg/kg of GSK215083.
[6] abbreviates: [^11C]GSK215083 coadministered with 0.05mg/kg of GSK215083.
The mark [7] stands for this setting: baseline scan, 60 min post injection of [^11C]GSK215083.

T1 sequence (P50406 whole entry): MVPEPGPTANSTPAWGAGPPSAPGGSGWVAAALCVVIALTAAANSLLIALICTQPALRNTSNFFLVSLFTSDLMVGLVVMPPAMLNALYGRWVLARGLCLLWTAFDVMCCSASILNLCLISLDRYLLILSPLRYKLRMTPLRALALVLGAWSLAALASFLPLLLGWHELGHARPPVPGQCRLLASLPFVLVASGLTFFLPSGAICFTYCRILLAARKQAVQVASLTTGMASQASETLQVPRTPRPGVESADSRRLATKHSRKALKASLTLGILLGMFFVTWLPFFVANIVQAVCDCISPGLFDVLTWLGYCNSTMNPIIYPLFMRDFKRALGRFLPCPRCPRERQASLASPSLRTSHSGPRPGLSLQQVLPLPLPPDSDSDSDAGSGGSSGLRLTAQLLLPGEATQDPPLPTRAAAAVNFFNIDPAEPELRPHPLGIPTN
Sequence of 5-HT2A (P28223 whole entry, species assumed): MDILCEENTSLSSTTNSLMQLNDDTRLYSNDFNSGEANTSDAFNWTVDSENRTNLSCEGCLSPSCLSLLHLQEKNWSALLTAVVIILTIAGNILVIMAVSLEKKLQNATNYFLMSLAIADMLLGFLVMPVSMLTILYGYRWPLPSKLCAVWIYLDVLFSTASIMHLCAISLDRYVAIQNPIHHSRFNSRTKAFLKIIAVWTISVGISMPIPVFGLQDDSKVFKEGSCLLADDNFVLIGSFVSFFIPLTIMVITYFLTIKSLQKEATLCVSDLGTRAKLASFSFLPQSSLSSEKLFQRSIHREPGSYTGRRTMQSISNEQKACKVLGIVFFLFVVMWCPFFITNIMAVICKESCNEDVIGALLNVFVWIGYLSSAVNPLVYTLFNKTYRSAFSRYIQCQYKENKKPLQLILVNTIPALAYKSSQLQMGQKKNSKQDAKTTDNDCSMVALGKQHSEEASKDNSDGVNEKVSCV
Sequence of 5-HT2B (P41595 whole entry, species assumed): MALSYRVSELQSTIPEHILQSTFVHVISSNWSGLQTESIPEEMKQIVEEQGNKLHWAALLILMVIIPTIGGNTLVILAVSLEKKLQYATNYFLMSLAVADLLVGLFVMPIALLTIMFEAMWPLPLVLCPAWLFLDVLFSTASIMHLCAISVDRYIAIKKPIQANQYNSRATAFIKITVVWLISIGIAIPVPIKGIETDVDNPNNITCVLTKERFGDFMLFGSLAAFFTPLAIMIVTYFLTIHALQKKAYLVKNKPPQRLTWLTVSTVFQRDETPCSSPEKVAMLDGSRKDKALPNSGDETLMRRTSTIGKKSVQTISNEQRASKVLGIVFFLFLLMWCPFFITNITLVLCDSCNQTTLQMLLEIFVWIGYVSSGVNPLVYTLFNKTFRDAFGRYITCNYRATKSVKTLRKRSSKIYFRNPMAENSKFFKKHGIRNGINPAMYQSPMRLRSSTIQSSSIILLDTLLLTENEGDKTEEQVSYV
Sequence of Dopamine D3 (P35462 whole entry): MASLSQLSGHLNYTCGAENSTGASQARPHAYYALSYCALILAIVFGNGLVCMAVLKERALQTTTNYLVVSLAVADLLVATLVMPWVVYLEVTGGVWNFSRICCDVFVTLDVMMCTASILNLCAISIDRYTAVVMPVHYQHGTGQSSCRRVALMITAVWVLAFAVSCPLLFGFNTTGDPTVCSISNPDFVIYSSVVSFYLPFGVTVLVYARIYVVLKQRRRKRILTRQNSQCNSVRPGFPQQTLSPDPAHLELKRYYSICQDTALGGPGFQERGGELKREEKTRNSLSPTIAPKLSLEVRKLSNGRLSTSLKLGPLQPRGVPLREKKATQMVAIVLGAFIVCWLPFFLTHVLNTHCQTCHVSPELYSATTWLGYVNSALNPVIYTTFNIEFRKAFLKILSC
Sequence of Dopamine D2 (P14416 whole entry): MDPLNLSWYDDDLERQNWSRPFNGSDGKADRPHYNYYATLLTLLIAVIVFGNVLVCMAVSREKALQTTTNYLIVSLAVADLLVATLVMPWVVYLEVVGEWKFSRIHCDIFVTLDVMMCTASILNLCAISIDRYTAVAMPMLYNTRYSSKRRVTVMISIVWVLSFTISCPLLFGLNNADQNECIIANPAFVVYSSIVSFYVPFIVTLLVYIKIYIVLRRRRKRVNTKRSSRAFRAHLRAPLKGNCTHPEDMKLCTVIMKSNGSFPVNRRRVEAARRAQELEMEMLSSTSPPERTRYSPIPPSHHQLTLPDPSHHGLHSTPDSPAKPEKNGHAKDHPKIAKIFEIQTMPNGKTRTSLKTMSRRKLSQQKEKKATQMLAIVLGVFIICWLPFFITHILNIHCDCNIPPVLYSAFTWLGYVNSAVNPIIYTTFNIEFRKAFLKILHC
Sequence of 5-HT1D (P28221 whole entry, species assumed): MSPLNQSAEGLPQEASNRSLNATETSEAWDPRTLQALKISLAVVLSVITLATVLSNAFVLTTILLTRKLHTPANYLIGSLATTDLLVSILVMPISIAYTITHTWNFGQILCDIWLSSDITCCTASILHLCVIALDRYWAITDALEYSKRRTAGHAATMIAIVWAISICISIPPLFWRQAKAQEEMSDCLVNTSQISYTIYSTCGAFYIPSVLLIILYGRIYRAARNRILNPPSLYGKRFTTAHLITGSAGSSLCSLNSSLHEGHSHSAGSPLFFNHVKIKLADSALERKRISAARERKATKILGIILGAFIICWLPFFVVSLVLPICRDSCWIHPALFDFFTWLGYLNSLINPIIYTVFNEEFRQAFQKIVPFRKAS
Sequence of 5-HT1B (P28222 whole entry, species assumed): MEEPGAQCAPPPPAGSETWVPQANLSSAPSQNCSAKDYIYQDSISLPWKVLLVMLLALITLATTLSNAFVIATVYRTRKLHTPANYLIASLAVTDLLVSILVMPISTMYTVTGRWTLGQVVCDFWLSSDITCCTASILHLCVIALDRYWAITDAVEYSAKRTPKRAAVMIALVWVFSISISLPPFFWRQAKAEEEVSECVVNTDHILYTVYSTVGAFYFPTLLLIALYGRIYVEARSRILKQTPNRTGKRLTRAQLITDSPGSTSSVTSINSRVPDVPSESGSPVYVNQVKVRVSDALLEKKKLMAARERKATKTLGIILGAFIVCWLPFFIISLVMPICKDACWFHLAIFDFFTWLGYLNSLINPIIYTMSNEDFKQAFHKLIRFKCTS
Sequence of 5-HT7 (P34969 whole entry, species assumed): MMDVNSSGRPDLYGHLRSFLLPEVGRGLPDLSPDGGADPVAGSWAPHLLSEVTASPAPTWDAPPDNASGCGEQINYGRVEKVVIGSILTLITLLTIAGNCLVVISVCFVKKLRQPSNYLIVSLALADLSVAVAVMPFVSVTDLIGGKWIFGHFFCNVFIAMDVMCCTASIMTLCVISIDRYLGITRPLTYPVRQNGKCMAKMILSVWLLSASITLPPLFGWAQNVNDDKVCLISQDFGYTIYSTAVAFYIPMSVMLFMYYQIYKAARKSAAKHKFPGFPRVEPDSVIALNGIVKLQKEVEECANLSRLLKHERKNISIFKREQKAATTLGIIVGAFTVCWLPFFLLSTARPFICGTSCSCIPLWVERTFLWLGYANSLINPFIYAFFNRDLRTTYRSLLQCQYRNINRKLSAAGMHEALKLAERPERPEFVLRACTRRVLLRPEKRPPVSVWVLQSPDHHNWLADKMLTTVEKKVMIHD

As for `CN1CCN(c2cccc3cc(S(=O)(=O)c4cccc(F)c4)cnc23)CC1` [GSK215083, 3-[(3-fluorophenyl)sulfonyl]-8-(4-methyl-1-piperazinyl)quinoline], the Ki in data set [1] (human recombinant 5-HT6 receptor stably expressed in the HeLa cell line, [^3H]LSD as radioligand) was 0.000151 µM; at 5-HT1A, > 7.08 µM; at 5-HT1B, 0.105 µM; at 5-HT1D, 0.0692 µM; at 5-HT2B, 0.00912 µM; at 5-HT2C, 0.0178 µM. For the same compound, the Ki at 5-HT7 was > 10 µM; at Dopamine D2, 0.912 µM; at Dopamine D3, 0.977 µM; on α1B adrenoreceptor, 0.977 µM; on 5-HT2A it was 0.000724 µM. For the same compound, the “selectivity for the human 5-HT6 receptor” value in data set [1] (over other receptors screened to date) is listed as “selective for the human 5-HT6 receptor over other receptors screened to date”. The “cortex to cerebellum ratio” value was 1 to 1 in the data set with 5-HT6 receptors [2] (setting [4]), 1.2 to 1 in the data set on 5-HT6 receptors [2] (setting [5]) and 1.1 to 1 in the data set on 5-HT6 receptors [2] (setting [6]). Further, the “striatum to cerebellum ratio” value in the data set on 5-HT6 receptors [2] (setting [4]) was in the range of 1.1 to 1; in the data set on 5-HT6 receptors [2] (setting [5]) it was 1.5 to 1; in the data set on 5-HT6 receptors [2] (setting [6]), 1.3 to 1.

Consider `[11CH3]N1CCN(c2cccc3cc(S(=O)(=O)c4cccc(F)c4)cnc23)CC1` [[^11C]GSK215083, [^11C-N-methyl]-3-(3-Fluoro-benzenesulfonyl)-8-(4-methyl-piperazin-1-yl)-quinoline], for which, in the data set on 5-HT6 receptors [3] (pig brain), the concentration in cerebellum entry is listed as “low” and the “rank order of regional brain concentrations” value is given as “striatum>cortical regions>cerebellum”. Also, in the data set with 5-HT6 receptors [3] (pig brain, intravenous 1 minute bolus), the “time of peak regional tissue concentrations post injection” value is given as “approximately 20 min”. For the same compound, the brain entry entry in the data set with 5-HT6 receptors [3] (pig, intravenous 1 minute bolus) is on record as “readily enters the brain”. In the data set with 5-HT6 receptors [2] (setting [7]), the “cortex to cerebellum ratio” value fell in the range of 1.5 to 1 and the “striatum to cerebellum ratio” value lay in the range of 2 to 1.

As a reminder, the Ki is the equilibrium dissociation constant of an inhibitor or competing ligand from its target.
